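A five-concentration, 48-hour dose response in 96-well plates underlies each endpoint, interpolated linearly between surrounding concentrations. Definition used: TGI = concentration required for complete inhibition of growth.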
What was measured:
Assay in all cases: inhibition of tumour cell growth, NCI panel, 48 h
786-0 renal = test system: 786-0 renal
A498 renal = test system: A498 renal
A549 NSCLC = test system: A549 NSCLC
ACHN renal = test system: ACHN renal
BT-549 breast = test system: BT-549 breast
CAKI-1 renal = test system: CAKI-1 renal
CCRF-CEM leukemia = test system: CCRF-CEM leukemia
DU-145 prostate = test system: DU-145 prostate
EKVX NSCLC = test system: EKVX NSCLC
HCT-116 colon = test system: HCT-116 colon
HCT-15 colon = test system: HCT-15 colon
HL-60(TB) leukemia = test system: HL-60(TB) leukemia
HOP-62 NSCLC = test system: HOP-62 NSCLC
HOP-92 NSCLC = test system: HOP-92 NSCLC
HS 578T breast = test system: HS 578T breast
HT29 colon = test system: HT29 colon
IGROV1 ovarian = test system: IGROV1 ovarian
KM12 colon = test system: KM12 colon
LOX IMVI melanoma = test system: LOX IMVI melanoma
M14 melanoma = test system: M14 melanoma
MALME-3M melanoma = test system: MALME-3M melanoma
MCF7 breast = test system: MCF7 breast
MDA-MB-435 = test system: MDA-MB-435
MDA-N = test system: MDA-N
MOLT-4 leukemia = test system: MOLT-4 leukemia
NCI-H226 lung = test system: NCI-H226 lung
NCI-H23 lung = test system: NCI-H23 lung
NCI-H460 lung = test system: NCI-H460 lung
NCI-H522 lung = test system: NCI-H522 lung
NCI/ADR-RES ovarian = test system: NCI/ADR-RES ovarian
OVCAR-3 ovarian = test system: OVCAR-3 ovarian
OVCAR-4 ovarian = test system: OVCAR-4 ovarian
OVCAR-5 ovarian = test system: OVCAR-5 ovarian
OVCAR-8 ovarian = test system: OVCAR-8 ovarian
PC-3 prostate = test system: PC-3 prostate
RXF 393 renal = test system: RXF 393 renal
SF-268 CNS = test system: SF-268 CNS
SF-295 CNS = test system: SF-295 CNS
SF-539 CNS = test system: SF-539 CNS
SK-MEL-2 melanoma = test system: SK-MEL-2 melanoma
SK-MEL-28 melanoma = test system: SK-MEL-28 melanoma
SK-MEL-5 melanoma = test system: SK-MEL-5 melanoma
SK-OV-3 ovarian = test system: SK-OV-3 ovarian
SN12C renal = test system: SN12C renal
SNB-19 CNS = test system: SNB-19 CNS
SNB-75 CNS = test system: SNB-75 CNS
SR leukemia = test system: SR leukemia
SW-620 colon = test system: SW-620 colon
TK-10 renal = test system: TK-10 renal
U251 CNS = test system: U251 CNS
UACC-257 melanoma = test system: UACC-257 melanoma
UACC-62 melanoma = test system: UACC-62 melanoma
UO-31 renal = test system: UO-31 renal
COLO 205 colon = test system: COLO 205 colon
HCC-2998 colon = test system: HCC-2998 colon
K-562 leukemia = test system: K-562 leukemia
RPMI-8226 leukemia = test system: RPMI-8226 leukemia
T-47D breast = test system: T-47D breast

SMILES: O=c1cc(-c2cccc(Cl)c2)[nH]c2ncccc12
- TGI (786-0 renal): 14.5 µM
- TGI (A498 renal): > 100 µM
- TGI (A549 NSCLC): > 100 µM
- TGI (ACHN renal): > 100 µM
- TGI (BT-549 breast): > 100 µM
- TGI (CAKI-1 renal): 40.4 µM
- TGI (CCRF-CEM leukemia): > 100 µM
- TGI (DU-145 prostate): > 100 µM
- TGI (EKVX NSCLC): > 100 µM
- TGI (HCT-116 colon): 1.17 µM
- TGI (HCT-15 colon): > 100 µM
- TGI (HL-60(TB) leukemia): 0.152 µM
- TGI (HOP-62 NSCLC): 33.4 µM
- TGI (HOP-92 NSCLC): > 100 µM
- TGI (HS 578T breast): 13 µM
- TGI (HT29 colon): > 100 µM
- TGI (IGROV1 ovarian): > 58.9 µM
- TGI (KM12 colon): > 100 µM
- TGI (LOX IMVI melanoma): > 100 µM
- TGI (M14 melanoma): > 100 µM
- TGI (MALME-3M melanoma): > 100 µM
- TGI (MCF7 breast): > 100 µM
- TGI (MDA-MB-435): 0.0382 µM
- TGI (MDA-N): 0.0374 µM
- TGI (MOLT-4 leukemia): > 24.8 µM
- TGI (NCI-H226 lung): > 100 µM
- TGI (NCI-H23 lung): > 100 µM
- TGI (NCI-H460 lung): > 100 µM
- TGI (NCI-H522 lung): 0.914 µM
- TGI (NCI/ADR-RES ovarian): > 100 µM
- TGI (OVCAR-3 ovarian): 0.957 µM
- TGI (OVCAR-4 ovarian): > 100 µM
- TGI (OVCAR-5 ovarian): > 100 µM
- TGI (OVCAR-8 ovarian): > 100 µM
- TGI (PC-3 prostate): 0.0694 µM
- TGI (RXF 393 renal): 40.1 µM
- TGI (SF-268 CNS): > 88.8 µM
- TGI (SF-295 CNS): 0.438 µM
- TGI (SF-539 CNS): 0.374 µM
- TGI (SK-MEL-2 melanoma): > 86.5 µM
- TGI (SK-MEL-28 melanoma): > 100 µM
- TGI (SK-MEL-5 melanoma): 1.92 µM
- TGI (SK-OV-3 ovarian): > 100 µM
- TGI (SN12C renal): 30.5 µM
- TGI (SNB-19 CNS): 24.1 µM
- TGI (SNB-75 CNS): > 56.1 µM
- TGI (SR leukemia): > 100 µM
- TGI (SW-620 colon): > 100 µM
- TGI (TK-10 renal): > 100 µM
- TGI (U251 CNS): 29.3 µM
- TGI (UACC-257 melanoma): > 100 µM
- TGI (UACC-62 melanoma): > 100 µM
- TGI (UO-31 renal): > 54 µM

SMILES: CC12CCC(C(=O)OC1=O)C(C)(C)O2 (stereo unspecified)
- TGI (A549 NSCLC): > 100 µM
- TGI (ACHN renal): > 100 µM
- TGI (BT-549 breast): > 100 µM
- TGI (CAKI-1 renal): > 100 µM
- TGI (CCRF-CEM leukemia): > 100 µM
- TGI (COLO 205 colon): > 100 µM
- TGI (DU-145 prostate): > 100 µM
- TGI (EKVX NSCLC): > 100 µM
- TGI (HCC-2998 colon): > 100 µM
- TGI (HCT-116 colon): > 100 µM
- TGI (HOP-62 NSCLC): > 100 µM
- TGI (HOP-92 NSCLC): > 100 µM
- TGI (HS 578T breast): > 100 µM
- TGI (HT29 colon): > 100 µM
- TGI (IGROV1 ovarian): > 100 µM
- TGI (K-562 leukemia): > 100 µM
- TGI (KM12 colon): > 100 µM
- TGI (LOX IMVI melanoma): > 100 µM
- TGI (M14 melanoma): > 100 µM
- TGI (MALME-3M melanoma): > 100 µM
- TGI (MCF7 breast): > 100 µM
- TGI (MDA-MB-435): > 100 µM
- TGI (MDA-N): > 100 µM
- TGI (MOLT-4 leukemia): > 100 µM
- TGI (NCI-H226 lung): > 100 µM
- TGI (NCI-H23 lung): > 100 µM
- TGI (NCI-H460 lung): > 100 µM
- TGI (NCI-H522 lung): > 100 µM
- TGI (NCI/ADR-RES ovarian): > 100 µM
- TGI (OVCAR-3 ovarian): > 100 µM
- TGI (OVCAR-4 ovarian): > 100 µM
- TGI (OVCAR-5 ovarian): > 100 µM
- TGI (OVCAR-8 ovarian): > 100 µM
- TGI (PC-3 prostate): > 100 µM
- TGI (RPMI-8226 leukemia): > 100 µM
- TGI (RXF 393 renal): > 100 µM
- TGI (SF-268 CNS): > 100 µM
- TGI (SF-295 CNS): > 100 µM
- TGI (SF-539 CNS): > 100 µM
- TGI (SK-MEL-2 melanoma): > 100 µM
- TGI (SK-MEL-28 melanoma): > 100 µM
- TGI (SK-MEL-5 melanoma): > 100 µM
- TGI (SK-OV-3 ovarian): > 100 µM
- TGI (SN12C renal): > 100 µM
- TGI (SNB-19 CNS): > 100 µM
- TGI (SNB-75 CNS): > 100 µM
- TGI (SW-620 colon): > 100 µM
- TGI (T-47D breast): > 100 µM
- TGI (TK-10 renal): > 100 µM
- TGI (U251 CNS): > 100 µM
- TGI (UACC-257 melanoma): > 100 µM
- TGI (UACC-62 melanoma): > 100 µM
- TGI (UO-31 renal): > 100 µM
